Test results published in patent US4666908A, “5-Substituted pyrazolo[4,3-d]pyrimidine-7-ones and methods of use” (Warner-Lambert Company, priority 1985, dated 1987).
Like-named read-outs stand apart in the source and are kept apart here.

How the values were obtained:
adenosine A1 receptor = target: T1, adenosine A1 receptor (Rattus norvegicus, UniProt P25099); assay: Adenosine Receptor Binding - A1 Receptor Affinity (RBA1), [3H]-N6-cyclohexyladenosine displacement; settings: [3H]-CHA 1.0 nM, rat brain membranes, 25° C., one hour; read-out: RBA-1, IC50 for adenosine A1 receptor affinity
T1 construct: Whole brain minus cerebellum and brainstem from male Long Evans rats; from tissue; host or cells: whole brain minus cerebellum and brainstem, male Long Evans rats (membranes)
T1 sequence (P25099 1-326): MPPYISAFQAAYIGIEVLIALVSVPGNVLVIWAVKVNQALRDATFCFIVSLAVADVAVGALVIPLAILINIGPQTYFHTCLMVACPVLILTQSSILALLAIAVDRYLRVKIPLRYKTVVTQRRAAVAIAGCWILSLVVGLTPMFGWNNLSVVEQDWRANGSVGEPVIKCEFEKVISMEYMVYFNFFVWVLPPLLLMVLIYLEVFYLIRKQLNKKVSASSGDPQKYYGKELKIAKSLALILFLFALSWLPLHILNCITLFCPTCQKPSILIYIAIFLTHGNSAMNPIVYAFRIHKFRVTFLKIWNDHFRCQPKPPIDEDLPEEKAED
Method: Whole brain minus cerebellum and brainstem from male Long Evans rats (150-200 g) was homogenized in 30 volumes of ice-cold 0.05M Tris-HCl buffer pH 7.7 using a Brinkman Polytron PT-10, (setting number 6 for 20 seconds) and centrifuged for ten minutes at 20,000×g (Sorvall RC-2), 4° C. The supernatant was discarded, and the pellet was resuspended and centrifuged as before. […] The homogenate was again centrifuged, and the final pellet was resuspended in ice-cold 0.05 M Tris-HCl buffer pH 7.7 to a concentration of 20 mg/ml original wet tissue weight and used immediately. […] Incubation volume was 2 ml. […] The filters were rinsed three times with 5 ml of ice cold 0.05 M Tris-HCl buffer pH 7.7. The radio-labeled ligand retained on the filter was measured by liquid scintillation spectrophotometry after shaking the filters for one hour or longer on a mechanical shaker in 10 ml of Beckman Ready-Solv HP scintillation cocktail. […] The Hill coefficient was calculated by linear regression of the line obtained by plotting the log of the bound radioligand vs the log of the [formula] The maximal number of binding sites (Bmax) was calculated from the Scatchard plot.

Type 1 Phosphodiesterase = assay: Phosphodiesterase (PDE) Inhibition, Type 1 Phosphodiesterase; format: biochemical, bovine (coronary arteries); settings: Type 1 PDE, at 10^-5 M; for % Inhibition of hydrolysis of 3H-cAMP: substrate 3H-cAMP 1.0 μM; for % Inhibition of hydrolysis of 3H-cGMP: substrate 3H-cGMP 1.0 μM
Excerpt: (§1) The method of Thompson, et al (Thompson, W. J., Terasaki, W. L., Epstein, P. M., Strada, S. J., Adv. Cyclic Nucleotide Res., 10:69-92, 1979), with minor modifications, was used to isolate phosphodiesterases from vascular smooth muscle. Bovine coronary arteries (right, anterior descending, and left circumflex arteries) from hearts obtained from a local slaughterhouse were used for these studies. Arteries from two hearts were used for each isolation. Hearts were kept on ice and the arteries were dissected within two hours after the animals were sacrificed. After removing all fat and connective tissue, the arteries were everted, cut into cubes with a single edge razor blade and homogenized with a Brinkman Polytron three times at a rheostat setting of 10.0 in four volumes of the PDE isolation buffer (10 mM Tris-HCl/pH 7.5, 2 mM MgCl2, and 1 mM dithiothreitol). The resulting homogenate was sonicated (30 sec/ml homogenate) and then centrifuged at 30,000 xg for 20 minutes. This and all subsequent procedures were performed at 4° C. The resulting supernatant was filtered through four layers of gauze, and applied to a DEAE-cellulose column (30×1.5 cm), prepared as described by Cheung (Cheung, W. Y., Biochim. Biophys. Acta, 191:303-315, 1969), and equilibrated with freshly prepared 70 mM sodium acetate/5 mM 2-mercaptoethanol (pH 6.5). The column was then washed with 2-3 bed volumes of sodium acetate/2-mercaptoethanol, after which the phosphodiesterases were eluted from the column using a continuous 70-1,000 mM sodium acetate gradient (pH 6.5, containing 5 mM 2-mercaptoethanol; total volume 400 ml). The flow rate was approximately equal to 25 ml/hr. Eight ml fractions were collected and assayed for cyclic AMP- and cyclic GMP-phosphodiesterase activity in the presence and absence of 0.1 units of calmodulin and 10 mM CaCl2. Appropriate fractions were pooled and dialyzed against 70 mM sodium acetate/5 mM 2-mercaptoethanol for 20 hours.
(§2) Following complete separation, the combined phosphodiesterase fractions were concentrated to 14% of the original volume using an Amicon ultrafiltration cell fitted with a UM-10 membrane, according to the method of Wells, et al (Wells, J. N., Baird, C. E., Wu, Y. J., Hardman, J. G., Biochim. Biophys. Acta, 384:430-442, 1975). Following concentration, the protein was then diluted to 65% with ethylene glycol monoethyl ether, and stored at -20° C.
(§3) Phosphodiesterase activity was measured as described previously (Weishaar, P. E., Quade, M., Boyd, D., Schenden, J., Mark, S. S., Kaplan, H. R., Drug Devel. Res., 3:517-534, 1983), in a reaction medium containing 40 mM Tris-HCl (pH 8.0), 5 mM MgCl and 4 mM 2-mercaptoethanol. Unless otherwise noted, the concentration of substrate (^3 H-cyclic AMP or ^3 H-cyclic GMP) was 1.0 μM. All agents examined were dissolved in dimethyl sulfoxide (DMSO). Final concentration of the reaction medium was either 2.5% (cardiac and platelet studies) or 1.25% (smooth muscle studies). This concentration of DMSO produced an approximately 10% inhibition of enzyme activity.

[1] = system: pentobarbital-anesthetized dog; assay: In Vivo Myocardial Inotropic Activity in Anesthetized Dog (CVAD); design: species or system dog (adult mongrel); settings: for change in vivo at 0.1 mg/kg / change in vivo at 0.31 mg/kg / change in vivo at 1 mg/kg / change in vivo at 3.1 mg/kg / change in vivo at 10 mg/kg: Canis lupus familiaris, iv; for change in vivo at 10 mg/kg: 10.00 mg/kg IV
Method: This test procedure is described in the following paragraphs.
This screen consists of determining the effects of increasing intravenous doses of compound on mycardial contractility (dP/dt max of left ventricular blood pressure), heart rate, and aortic blood pressure of the pentobarbital-anesthetized dog.
Adult mongrel dogs of either sex are anesthetized with pentobarbital, 35 mg/kg, IV, and are subsequently maintained under anesthesia with a continuous infusion of pentobarbital, 3.5 mg/kg/hour. The trachea is intubated but the animals are permitted to breathe spontaneously. A cannula is inserted into the femoral vein for administrating test agents. A Millar catheter tip pressure transducer or a fluid filled catheter is inserted into the ascending aorta via the femoral artery for measuring aortic blood pressure. A Millar catheter tip pressure transducer is passed into the left ventricle via the left carotid artery for measuring left ventricular blood pressure. Needle electrodes are placed subcutaneously for recording a lead II electrocardiogram (ECG).
Left ventricular and aortic blood pressures are recorded on a strip chart recorder. Heart rate, using a biotachometer triggered from the R wave of the ECG, and the first derivative of left ventricular blood pressure (dP/dt), obtained with a differentiator amplifier coupled to the corresponding pressure amplifier, are also recorded. A period of at least 30 minutes is utilized to obtain control data prior to administration of test compound.
Ethanol or dimethylacetamide can be used as solvents if adequate dilutions can be made. Appropriate vehicle controls are administered when needed.
Each dose of the test compound is administered in a volume of […] over a period of one minute.

Type 3 Phosphodiesterase = assay: Phosphodiesterase (PDE) Inhibition, Type 3 Phosphodiesterase; format: biochemical, bovine (coronary arteries); settings: Type 3 PDE, at 10^-5 M, substrate 3H-cAMP 1.0 μM
Excerpt: as §1, §2, §3

[2] = 0.10 mg/kg IV, read-out: Percent Change Heart Rate
[3] = 0.10 mg/kg IV, read-out: Percent Change Myocardial Contractility
[4] = 0.31 mg/kg IV, read-out: Percent Change Heart Rate
[5] = 0.31 mg/kg IV, read-out: Percent Change Myocardial Contractility
[6] = 1.00 mg/kg IV, read-out: Percent Change Heart Rate
[7] = 1.00 mg/kg IV, read-out: Percent Change Myocardial Contractility
[8] = 3.10 mg/kg IV, read-out: Percent Change Heart Rate
[9] = 3.10 mg/kg IV, read-out: Percent Change Myocardial Contractility
[10] = intravenously at about 0.01 to 0.31 mg/kg

| IC50 (adenosine A1 receptor) | % Inhibition of hydrolysis of 3H-cAMP (Type 1 Phosphodiesterase) | % Inhibition of hydrolysis of 3H-cGMP (Type 1 Phosphodiesterase) | % Inhibition of hydrolysis of 3H-cAMP (Type 3 Phosphodiesterase) | Compound | change in vivo at 0.1 mg/kg [1, 2] | change in vivo at 0.1 mg/kg [1, 3] | change in vivo at 0.31 mg/kg [1, 4] | change in vivo at 0.31 mg/kg [1, 5] | change in vivo at 1 mg/kg [1, 6] | change in vivo at 1 mg/kg [1, 7] | change in vivo at 3.1 mg/kg [1, 8] | change in vivo at 3.1 mg/kg [1, 9] | also measured |
| --- | --- | --- | --- | --- | --- | --- | --- | --- | --- | --- | --- | --- | --- |
| 13100 nM | 80% | 71% | 23% | Cc1nn(C)c2c(=O)[nH]c(Cc3ccccc3)nc12 [Example 1, 1,3-Dimethyl-5-benzylpyrazolo[4,3-d]pyrimidine-7-one] | 2% | 8% | 3% | 12% | 6% | 23% | 14% | 42% | change in vivo at 10 mg/kg ([1]; read-out: Percent Change Heart Rate): 38%; change in vivo at 10 mg/kg ([1]; read-out: Percent Change Myocardial Contractility): 95%; blood pressure (in words) [1, 10]: a moderate reduction in blood pressure; cardiac contractility (in words) [1, 10]: dose related significant increases in cardiac contractility; heart rate (in words) [1, 10]: only low or minimal changes in heart rate |
| 887 nM | 5% | 3% | 0% | Cc1nn(C)c2c(=O)[nH]c(-c3ccc(Cl)c(Cl)c3)nc12 [Example 15, 1,3-Dimethyl-5-(3,4-dichlorophenyl)pyrazolol[4,3-d]-pyrimidine-7one] | 7% | 8% | 7% | 10% | 9% | 13% | 12% | 13% | Percent Change Blood Pressure ([1]; 0.10 mg/kg IV): 1/2; Percent Change Blood Pressure ([1]; 3.10 mg/kg IV): 1/2 |
| 880 nM | 16% | 6% | 1% | Cc1nn(C)c2c(=O)[nH]c(-c3ccc([N+](=O)[O-])cc3)nc12 [Example 9, 1,3-Dimethyl-5-(4-nitrophenyl)pyrazolo[4,3-d]pyrimidine-7-one] | 1% | 4% | 0% | 5% | -3% | 4% | 1% | 2% |  |
| 953 nM | 5% | 13% | 20% | Cc1nn(C)c2c(=O)[nH]c(-c3ccncc3)nc12 [Example 2, 1,3-Dimethyl-5-(4-pyridyl)-pyrazolo[4,3-d]pyrimidine-7-one] | 1% | 4% | 1% | 7% | 28% | 53% | 49% | 121% | change in vivo at 0.1 mg/kg ([1]; 0.10 mg/kg IV, read-out: Percent Change Blood Pressure): 0% |
| 1020 nM | 6% | 14% | 35% | Cc1nn(C)c2c(=O)[nH]c(-c3ccccc3)nc12 [Example 6, 1,3-Dimethyl-5-phenylpyrazolo[4,3-d]pyrimidine-7-one] | -1% | 4% | -4% | 3% | 7% | 20% | 37% | 45% |  |
| 1920 nM | 10% | 17% | 17% | COc1ccc(-c2nc3c(C)nn(C)c3c(=O)[nH]2)cc1OC [Example 16, 1,3-Dimethyl-5-(3,4-dimethoxyphenyl)pyrazolo[4,3-d]pyrimidine-7-one] | 1% | 2% | -1% | -1% | -2% | -1% |  |  | Percent Change Blood Pressure ([1]; 0.31 mg/kg IV): 1/3; Percent Change Blood Pressure ([1]; 1.00 mg/kg IV): 1/2 |
| 3090 nM | 6% | 4% | 3% | Cc1nn(C)c2c(=O)[nH]c(-c3cccnc3)nc12 [Example 4, 1,3-Dimethyl-5-(3-pyridyl)pyrazolo[4,3-d]pyrimidine-7-one] | 0% | 2% | 1% | 7% | 4% | 27% | 9% | 55% | Percent Change Blood Pressure ([1]; 0.10 mg/kg IV): 0/0 |
